Results from patent publication US20140154264A1, “COMPOSITIONS AND METHODS FOR TREATING CANCER AND DISEASES AND CONDITIONS RESPONSIVE TO CELL GROWTH INHIBITION” (THE REGENTS OF THE UNIVERSITY OF CALIFORNIA, priority 2011, published 2014).
Where two headings read alike, the source gives them in different places. Blank lines part the entries; values can stand above or below the compound they belong to.

How the values were obtained:
[1] = tested on: FG and FG-β3 cells; test: tumor sphere formation assay; assay type: cell-based, human; conditions: for effect of αvβ3 expression on drug resistance: in vitro, FG cells lacking vs expressing αvβ3
Experimental: (n=3 independent experiments); as discussed in detail in Example 1, below.
Therefore, we examined whether αvβ3 expression also promotes resistance to other growth factor inhibitors and/or cytotoxic agents.
Immunoblot analysis of FG, FG-β3 and FG-β3 stably expressing non-silencing or RalB-specific ShRNA, grown in suspension and treated with erlotinib (0.5 μM). pTBK1 refers to phospho-S172 TBK1, p-p65 NF-κB refers to phospho-p65 NF-κB S276, pFAK refers to phospho-FAK Tyr 861. […] Error bars represent s.d. (n=3 independent experiments). *P<0.05, **P<0.001, NS=not significant. Immunoblot analysis showing NF-κB WT and S276D NF-κB FLAG transfection efficiency. (c) Tumor spheres formation assay of FG-β3 treating with non-silencing (shCTRL) or NF-κB-specific shRNA and exposed to erlotinib (0.5 μM). Error bars represent s.d. (n=3 independent experiments). *P<0.05, NS=not significant. (d) Dose response in FG-β3 cells treated with erlotinib (10 nM to 5 μM), lenalidomide (10 nM to 5 μM) or a combination of erlotinib (10 nM to 5 μM) and lenalidomide (1 μM). Error bars represent s.d. (n=3 independent experiments). *P<0.05, NS=not significant.
Tumor spheres formation assays were performed essentially as described previously^17. Briefly, cells were seeded at 1000 to 2000 cells per well and grown for 12 days to 3 weeks. Cells were treated with vehicle (DMSO), erlotinib (10 nM to 5 μM), lapatinib (10 nM to 5 μM), gemcitabine (0.001 nM to 5 μM), OSI-906 (10 nM to 5 μM), lenalidomide (10 nM to 5 μM), or cisplatin (10 nM to 5 μM), diluted in DMSO. The media was replaced with fresh inhibitor every day for erlotinib, lapatinib, lenalidomide and 3 times a week for cisplatin and gemcitabine. Colonies were stained with crystal violet and scored with an Olympus SZH10 microscope. Survival curves were generated at least with five concentration points.

[2] = tested on: patients with cancer; test: cancer patient studies; assay type: in vivo, human; conditions: various patients with cancer
[3] = biological target: avb3 (Homo sapiens, UniProt P05106+P06756); test: cell-free integrin binding assay
[4] = biological target: avb5 (Homo sapiens, UniProt P06756+P18084); test: cell-free integrin binding assay
[5] = tested on: C-RAF S338 phosphorylation; test: C-RAF S338 phosphorylation in brain tumors; assay type: in vivo; conditions: mouse orthotopic model
Excerpt: (§1) These events are associated with reduced cell proliferation in vitro and tumor regression in vivo.

[6] = tested on: angiogenesis and tumor growth; test: angiogenesis and tumor growth in vivo
[7] = tested on: G2/M progression; test: G2/M progression after cilengitide treatment; assay type: cell-based
[8] = tested on: orthotopic GBM tumors; test: orthotopic brain tumor mouse model; assay type: in vivo
[9] = tested on: C-RAF Ser338; test: C-RAF Ser338 phosphorylation in human glioblastoma cell lines; assay type: cell-based
Excerpt: as §1

[10] = tested on: H441 human lung adenocarcinoma orthotopic tumors; test: orthotopic lung cancer xenograft model; assay type: in vivo, mice; conditions: systemic erlotinib for 7-8 weeks
Excerpt: (§2) The longer cells were exposed to erlotinib the greater the expression level of αvβ3 was observed, FIG. 26b. […] Thus, exposure of histologically distinct tumor cells in vitro or in vivo to EGFR inhibitors selects for a tumor cell population expressing high levels of αvβ3.
(a) Flow cytometric quantification of cell surface markers after 3 weeks treatment with erlotinib (pancreatic and colon cancer cells) or lapatinib (breast cancer cells). (b) Flow cytometric analysis of αvβ3 expression in FG and Miapaca-2 cells following erlotinib. Error bars represent s.d. (n=3 independent experiments). […] Bottom, Integrin αvβ3 expression was quantified as ratio of integrin αvβ3 pixel area over nuclei pixel area using Metamorph (*P=0.049 using Mann-Whitney U test). […] Results are expressed as % tumor weight compared to vehicle control. *P<0.05.
Immunostaining was performed according to the manufacturer's recommendations (Vector Labs) on […] sections of paraffin-embedded tumors from the orthotopic xenograft pancreas and lung cancer mouse models^14 or from a metastasis tissue array purchased from US Biomax (MET961). […] Sections stained with integrin β3 and active Ral were scored by a H-score according to the staining intensity (SI) on a scale 0 to 3 within the whole tissue section.

[11] = tested on: PANC-1 cells; test: tumor sphere formation assay; assay type: cell-based, human; conditions: αvβ3 knockdown vs control
Excerpt: (§3) In all cases, β3 expressing tumor cells were intrinsically more resistant to EGFR blockade than β3-negative tumor cell lines (FIG. 26e).
(a) Flow cytometric quantification of cell surface markers after 3 weeks treatment with erlotinib (pancreatic and colon cancer cells) or lapatinib (breast cancer cells). (b) Flow cytometric analysis of αvβ3 expression in FG and Miapaca-2 cells following erlotinib. Error bars represent s.d. (n=3 independent experiments). (c) Top, immunofluorescence staining of integrin αvβ3 in tissue specimens obtained from orthotopic pancreatic tumors treated with vehicle (n=3) or erlotinib (n=4). Scale bar, 50 μm. Bottom, Integrin αvβ3 expression was quantified as ratio of integrin αvβ3 pixel area over nuclei pixel area using Metamorph (*P=0.049 using Mann-Whitney U test). (d) Right, intensity (scale 0 to 3) of β3 expression in mouse orthotopic lung tumors treated with vehicle (n=8) or erlotinib (n=7). Left, immunohistochemical staining of β3. Scale bar, 100 μm. […] (f) Tumor sphere formation assay to establish a dose-response for erlotinib. Error bars represent s.d. (n=3 independent experiments). […] Results are expressed as % tumor weight compared to vehicle control. *P<0.05.
Tumor spheres formation assays were performed essentially as described previously^17. […] Colonies were stained with crystal violet and scored with an Olympus SZH10 microscope.

[12] = tested on: orthotopic FG pancreatic tumors; test: orthotopic pancreas cancer xenograft model; assay type: in vivo, mice
Excerpt: as §2, §3
(a) Flow cytometric quantification of cell surface markers after 3 weeks treatment with erlotinib (pancreatic and colon cancer cells) or lapatinib (breast cancer cells). (b) Flow cytometric analysis of αvβ3 expression in FG and Miapaca-2 cells following erlotinib. Error bars represent s.d. (n=3 independent experiments). (c) Top, immunofluorescence staining of integrin αvβ3 in tissue specimens obtained from orthotopic pancreatic tumors treated with vehicle (n=3) or erlotinib (n=4). Scale bar, 50 μm. Bottom, Integrin αvβ3 expression was quantified as ratio of integrin αvβ3 pixel area over nuclei pixel area using Metamorph (*P=0.049 using Mann-Whitney U test). (d) Right, intensity (scale 0 to 3) of β3 expression in mouse orthotopic lung tumors treated with vehicle (n=8) or erlotinib (n=7). Left, immunohistochemical staining of β3. Scale bar, 100 μm. […] Results are expressed as % tumor weight compared to vehicle control. *P<0.05. […]

[13] = tested on: phosphorylated NF-κB; test: immunoblot analysis of cells grown in suspension and treated with erlotinib; assay type: cell-based, human; conditions: erlotinib 0.5 μM
Experimental: (§4) In addition, it has been shown that NF-κB signaling is essential for KRAS-driven tumor growth and resistance to EGFR blockade^27-29. This prompted us to ask whether αvβ3 could regulate NF-κB activity through RalB activation and thereby promote tumor cell resistance to EGFR targeted therapy. To test this, tumor cells expressing or lacking integrin αvβ3 and/or RalB were grown in the presence or absence of erlotinib and lysates of these cells were analyzed for activated downstream effectors of RalB. […] NF-κB activity was sufficient to account for EGFR inhibitor resistance since ectopically expressed a constitutively active NF-κB (S276D) in β3-negative FG pancreatic tumor cells^30 conferred resistance to EGFR inhibition, see FIG. 29b). […] Together, our studies describe a role for αvβ3 mediating resistance to EGFR inhibition via RalB activation and its downstream effector NF-κB, opening new avenues to target tumors that are resistant to EGFR targeted therapy, see FIG. 29e.
(§5) Immunoblot analysis of FG, FG-β3 and FG-β3 stably expressing non-silencing or RalB-specific ShRNA, grown in suspension and treated with erlotinib (0.5 μM). pTBK1 refers to phospho-S172 TBK1, p-p65 NF-κB refers to phospho-p65 NF-κB S276, pFAK refers to phospho-FAK Tyr 861. Data are representative of three independent experiments. (b) Tumor spheres formation assay of FG cells ectopically expressing vector control, WT NF-κB FLAG tagged or constitutively active S276D NF-κB FLAG tagged constructs treated with erlotinib (0.5 μM). Error bars represent s.d. (n=3 independent experiments). *P<0.05, **P<0.001, NS=not significant. Immunoblot analysis showing NF-κB WT and S276D NF-κB FLAG transfection efficiency. (c) Tumor spheres formation assay of FG-β3 treating with non-silencing (shCTRL) or NF-κB-specific shRNA and exposed to erlotinib (0.5 μM). Error bars represent s.d. (n=3 independent experiments). *P<0.05, NS=not significant. (d) Dose response in FG-β3 cells treated with erlotinib (10 nM to 5 μM), lenalidomide (10 nM to 5 μM) or a combination of erlotinib (10 nM to 5 μM) and lenalidomide (1 μM). Error bars represent s.d. (n=3 independent experiments). *P<0.05, NS=not significant. (e) Model depicting the integrin αvβ3-mediated EGFR TKI resistance and conquering EGFR TKI resistance pathway and its downstream RalB and NF-κB effectors.
(§6) Cells were lysed in either RIPA lysis buffer (50 mM Tris pH 7.4, 100 mM NaCL, 2 mM EDTA, […], 10% Triton, 0.1% SDS) or Triton lysis buffer (50 mM Tris pH 7.5, 150 mN NaCl, 1 mM EDTA, 5 mM MgCl2, 10% Glycerol, 1% Triton) supplemented with complete protease and phosphatase inhibitor mixtures (Roche) and centrifuged at 13,000 g for 10 min at 4° C. Protein concentration was determined by BCA assay. […]

[14] = tested on: phosphorylated TBK1; test: as above; assay type: cell-based, human; conditions: erlotinib 0.5 μM
Experimental: as §4, §5, §6

Chain of avb3 (P06756 31-889 limits assumed): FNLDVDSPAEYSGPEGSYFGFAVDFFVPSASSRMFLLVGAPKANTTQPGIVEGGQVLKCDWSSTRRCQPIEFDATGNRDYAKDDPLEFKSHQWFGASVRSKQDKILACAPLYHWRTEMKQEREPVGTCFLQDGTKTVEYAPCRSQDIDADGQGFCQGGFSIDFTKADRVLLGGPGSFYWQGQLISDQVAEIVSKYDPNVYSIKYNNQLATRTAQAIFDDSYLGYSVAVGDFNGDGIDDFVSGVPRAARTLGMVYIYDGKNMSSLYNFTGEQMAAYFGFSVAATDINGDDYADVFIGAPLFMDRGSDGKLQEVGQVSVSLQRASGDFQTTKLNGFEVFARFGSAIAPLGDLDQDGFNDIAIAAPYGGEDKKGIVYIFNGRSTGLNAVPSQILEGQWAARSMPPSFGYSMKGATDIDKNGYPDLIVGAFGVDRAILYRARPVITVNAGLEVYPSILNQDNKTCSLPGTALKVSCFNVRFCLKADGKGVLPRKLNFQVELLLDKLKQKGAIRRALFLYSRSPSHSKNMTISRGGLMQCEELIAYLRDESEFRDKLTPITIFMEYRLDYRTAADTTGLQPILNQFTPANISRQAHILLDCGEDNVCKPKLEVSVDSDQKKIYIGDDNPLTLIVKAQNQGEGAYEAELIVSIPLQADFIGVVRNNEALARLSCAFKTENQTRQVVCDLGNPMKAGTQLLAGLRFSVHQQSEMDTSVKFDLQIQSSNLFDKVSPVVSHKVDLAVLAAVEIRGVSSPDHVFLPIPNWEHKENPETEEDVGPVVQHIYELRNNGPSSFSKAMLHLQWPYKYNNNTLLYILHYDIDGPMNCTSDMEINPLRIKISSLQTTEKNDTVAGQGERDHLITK
Chain of avb3 (P06756 891-1048 limits assumed): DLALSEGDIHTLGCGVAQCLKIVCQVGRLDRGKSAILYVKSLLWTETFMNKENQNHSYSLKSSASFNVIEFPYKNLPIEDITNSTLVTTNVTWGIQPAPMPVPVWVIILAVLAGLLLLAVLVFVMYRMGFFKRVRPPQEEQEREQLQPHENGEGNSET
Chain of avb3 (P05106 27-788): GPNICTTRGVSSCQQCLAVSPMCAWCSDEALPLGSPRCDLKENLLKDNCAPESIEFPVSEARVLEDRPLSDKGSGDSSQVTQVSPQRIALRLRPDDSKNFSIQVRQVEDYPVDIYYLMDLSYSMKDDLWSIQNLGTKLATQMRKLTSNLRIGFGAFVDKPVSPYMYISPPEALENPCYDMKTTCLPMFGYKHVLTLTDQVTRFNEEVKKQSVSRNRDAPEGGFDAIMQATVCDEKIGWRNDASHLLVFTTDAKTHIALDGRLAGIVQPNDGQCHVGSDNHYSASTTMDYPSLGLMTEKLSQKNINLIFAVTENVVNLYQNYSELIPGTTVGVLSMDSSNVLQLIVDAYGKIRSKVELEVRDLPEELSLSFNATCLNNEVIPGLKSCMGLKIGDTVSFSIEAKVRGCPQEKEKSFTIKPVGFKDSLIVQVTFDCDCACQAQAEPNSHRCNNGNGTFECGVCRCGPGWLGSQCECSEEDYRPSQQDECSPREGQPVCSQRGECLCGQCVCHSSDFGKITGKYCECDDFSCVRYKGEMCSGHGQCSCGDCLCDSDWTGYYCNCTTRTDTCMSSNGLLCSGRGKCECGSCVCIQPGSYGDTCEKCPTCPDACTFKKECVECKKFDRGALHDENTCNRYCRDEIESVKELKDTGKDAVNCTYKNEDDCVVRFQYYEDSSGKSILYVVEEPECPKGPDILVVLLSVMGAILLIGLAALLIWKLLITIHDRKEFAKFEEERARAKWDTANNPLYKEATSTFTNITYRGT
Chain of avb5 (P06756 31-889 limits assumed): as the sequence (P06756 31-889 limits assumed) above
Chain of avb5 (P06756 891-1048 limits assumed): as the sequence (P06756 891-1048 limits assumed) above
Chain of avb5 (P18084 24-799): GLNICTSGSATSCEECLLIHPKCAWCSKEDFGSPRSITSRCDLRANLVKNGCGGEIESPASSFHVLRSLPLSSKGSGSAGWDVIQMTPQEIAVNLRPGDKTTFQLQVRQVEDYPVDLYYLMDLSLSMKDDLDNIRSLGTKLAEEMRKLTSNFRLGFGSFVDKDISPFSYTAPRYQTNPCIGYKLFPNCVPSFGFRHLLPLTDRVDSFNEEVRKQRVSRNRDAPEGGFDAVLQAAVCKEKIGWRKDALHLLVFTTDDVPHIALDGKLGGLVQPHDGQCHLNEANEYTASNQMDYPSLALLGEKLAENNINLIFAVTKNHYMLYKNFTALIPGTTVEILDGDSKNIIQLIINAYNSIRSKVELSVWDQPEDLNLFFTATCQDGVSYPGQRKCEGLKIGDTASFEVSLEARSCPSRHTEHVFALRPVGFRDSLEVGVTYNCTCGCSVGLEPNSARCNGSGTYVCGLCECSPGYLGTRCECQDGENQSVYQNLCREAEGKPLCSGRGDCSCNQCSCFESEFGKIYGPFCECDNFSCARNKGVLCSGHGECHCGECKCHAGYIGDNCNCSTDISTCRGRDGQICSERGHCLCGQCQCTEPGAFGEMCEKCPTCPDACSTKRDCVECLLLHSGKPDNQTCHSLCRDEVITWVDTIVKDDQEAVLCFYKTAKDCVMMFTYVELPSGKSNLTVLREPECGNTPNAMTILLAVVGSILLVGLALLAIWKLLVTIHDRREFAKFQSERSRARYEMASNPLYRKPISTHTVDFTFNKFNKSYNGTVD

Structure (SMILES): C[C@]1(O)C[C@@H](c2nc(-c3ccc4ccc(-c5ccccc5)nc4c3)c3c(N)nccn32)C1 [OSI-906]
effect of αvβ3 expression on drug resistance [1]: induced resistance

inhibition of ligand binding to integrin avb3 [3]: inhibit ligand binding
inhibition of ligand binding to integrin avb3 ([3]; listed as EMD 121974): potent inhibitor
inhibition of ligand binding to integrin avb5 [4]: inhibit ligand binding
inhibition of ligand binding to integrin avb5 ([4]; listed as EMD 121974): potent inhibitor
Structure (SMILES): CC(C)[C@H]1C(=O)N[C@@H](CCCN=C(N)N)C(=O)NCC(=O)N[C@@H](CC(=O)O)C(=O)N[C@H](Cc2ccccc2)C(=O)N1C [cilengitide]
efficacy in cancer patients [2]: potentially efficacious in some patients
toxicity in cancer patients [2]: non-toxic
C-RAF S338 phosphorylation [5]: blocks C-RAF S338 phosphorylation
C-RAF S338 phosphorylation ([5]; listed as Cilengitide): prevents the activation/phosphorylation of C-RAF Ser338
angiogenesis and tumor growth in vivo [6]: inhibited angiogenesis and tumor growth
G2/M progression [7]: blocks G2/M progression
orthotopic GBM tumor vascularization and growth ([8]; CD31, Ki-67 and TUNEL staining): inhibits orthotopic GBM tumor vascularization and growth
tumor burden ([8]; GBM tumors implanted in the brain): decreases tumor burden
orthotopic GBM tumor burden ([8]; sub-optimal doses of cilengitide and radiation combined): synergize to reduce orthotopic GBM tumor burden
activation/phosphorylation of C-RAF Ser338 [9]: prevents the activation/phosphorylation of C-RAF Ser338

Structure (SMILES): N.N.[Cl][Pt][Cl] [cisplatin]
effect of αvβ3 expression on drug resistance [1]: failed to protect cells

Structure (SMILES): C#Cc1cccc(Nc2ncnc3cc(OCCOC)c(OCCOC)cc23)c1 [erlotinib]
effect of αvβ3 expression on drug resistance [1]: dramatically increased erlotinib resistance
erlotinib sensitivity under genetic or pharmacological inhibition of NF-κB ([1]; β3-positive cells, FIG. 29d combination with lenalidomide (1 μM)): completely restored erlotinib sensitivity
integrin αvβ3 expression compared with vehicle-treated tumors [10]: qualitative increase
increase in tumor cell sensitivity on knockdown of αvβ3 [11]: 10 fold
increase in αvβ3 expression ([12]; four weeks of erlotinib treatment): 10 fold
effect of ectopic expression of αvβ3 on drug resistance ([12]; orthotopic pancreatic tumors after systemic treatment): dramatically increased erlotinib resistance
levels of phosphorylated NF-κB ([13]; αvβ3 negative cells): reduced levels
levels of phosphorylated NF-κB ([13]; β3-positive cells): remained activated
levels of phosphorylated TBK1 ([14]; αvβ3 negative cells): reduced levels
levels of phosphorylated TBK1 ([14]; β3-positive cells): remained activated

Structure (SMILES): Nc1ccn([C@@H]2O[C@H](CO)[C@@H](O)C2(F)F)c(=O)n1 [gemcitabine]
effect of αvβ3 expression on drug resistance [1]: failed to protect cells
